What was measured:
Format in all cases: cell-based, human
[1] = tested on: ACHN cells expressing constitutively stable HIF-2α-P405A, P853A; assay: Cell cycle analysis of HIF-α mutant cell lines, ACHN HIF-2α; conditions: 48 hours post treatment
Description: (§1) Transduction of empty retroviral vector (pBabe) served as a negative control.
(§2) Flow Cytometry: Cells were plated at a density such that they were no more than 70% confluent on the day of analysis. […] For propidium iodide staining, cells were trypsinized, collected by centrifugation and washed in PBS prior to fixing in 70% v/v ethanol. Ethanol was removed by washing in PBS. Cells were incubated with 100 μg/ml RNase A (Sigma) for 5 minutes and stained with 50 μg/ml PI for 30 minutes. […] Cells were stained with fluorescein isothiocyanate (FITC)-conjugated anti-BrdU antibodies (BD Biosciences) according to the manufacturer's instructions. Following multiple washes in blocking solution and PBS, cells were stained with 5 μg/ml PI for 30 minutes. The PI or BrdU/PI-stained samples were analyzed by an LSR® FACS (Becton Dickinson) and the cell cycle profile was analyzed with the FlowJo® software (Tree Star Inc.). Phosphoprotein flow cytometry analysis was performed as previously described in Shah N P et al, Cell 14, 485 (2008), incorporated by reference herein.

ACHN VHL WT = assay: Cell cycle analysis of HIF-α mutant cell lines, ACHN, VHL WT; conditions: 48 hours post treatment
Description: as §1, §2

ACHN VHL WT cells = assay: Cell cycle analysis by flow cytometry (PI staining), ACHN VHL WT
Description: as §1, §2

ACHN shVHL cells = assay: Cell cycle analysis by flow cytometry (PI staining), ACHN shVHL
Description: as §1, §2

SN12C VHL WT cells = assay: Cell cycle analysis by flow cytometry (PI staining), SN12C VHL WT
Description: as §1, §2

SN12C shVHL cells = assay: Cell cycle analysis by flow cytometry (PI staining), SN12C shVHL
Description: as §1, §2

[2] = tested on: SN12C cells expressing constitutively stable HIF-2α-P405A, P853A; assay: Cell cycle analysis of HIF-α mutant cell lines, SN12C HIF-2α; conditions: 48 hours post treatment
Description: as §1, §2

SN12C VHL WT = assay: Cell cycle analysis of HIF-α mutant cell lines, SN12C, VHL WT; conditions: 48 hours post treatment
Description: as §1, §2

SN12C-shVHL cells = assay: Cell proliferation assay (cell count), SN12C-shVHL
Text: (§3) Cells were split to sustain log phase growth.

VHL-WT SN12C cells = assay: Cell proliferation assay (cell count), SN12C
Text: as §3

`Cc1nc(Nc2ncc(C(=O)Nc3c(C)cccc3Cl)s2)cc(N2CCN(CCO)CC2)n1` [dasatinib] was tested, and the “Cell population (%) in G1” value ([1]; dasatinib 25 nM) was 53.9%, the “Cell population (%) in G2/M” value ([1]; dasatinib 25 nM) was 16.1% and the “Cell population (%) in S” value ([1]; dasatinib 25 nM) was 27.7%. For the same compound, the “Cell population (%) in G1” value ([1]; dasatinib 50 nM) was 51.9%, the “Cell population (%) in G2/M” value ([1]; dasatinib 50 nM) was 19.3% and the “Cell population (%) in S” value ([1]; dasatinib 50 nM) was 27.0%. For the same compound, the “Cell population (%) in G1” value ([1]; dasatinib 100 nM) was 55.3%, the “Cell population (%) in G2/M” value ([1]; dasatinib 100 nM) was 17.7% and the “Cell population (%) in S” value ([1]; dasatinib 100 nM) was 24.2%. The “Cell population (%) in G1” value (ACHN VHL WT; dasatinib 25 nM) was 59.2%, the “Cell population (%) in G2/M” value (ACHN VHL WT; dasatinib 25 nM) was 17.1% and the “Cell population (%) in S” value (ACHN VHL WT; dasatinib 25 nM) was 21.6%. For the same compound, the “Cell population (%) in G1” value (ACHN VHL WT; dasatinib 50 nM) was 56.4%, the “Cell population (%) in G2/M” value (ACHN VHL WT; dasatinib 50 nM) was 16.0% and the “Cell population (%) in S” value (ACHN VHL WT; dasatinib 50 nM) was 25.1%. The “Cell population (%) in G1” value (ACHN VHL WT; dasatinib 100 nM) was 60.1%, the “Cell population (%) in G2/M” value (ACHN VHL WT; dasatinib 100 nM) was 22.0% and the “Cell population (%) in S” value (ACHN VHL WT; dasatinib 100 nM) was 17.6%. For the same compound, the “Cell population (%) in G1” value (ACHN VHL WT cells; dasatinib 25 nM) was 59.7%, the “Cell population (%) in G2/M” value (ACHN VHL WT cells; dasatinib 25 nM) was 12.6% and the “Cell population (%) in S” value (ACHN VHL WT cells; dasatinib 25 nM) was 25.8%. The “Cell population (%) in G1” value (ACHN VHL WT cells; dasatinib 50 nM) was 62.1%, the “Cell population (%) in G2/M” value (ACHN VHL WT cells; dasatinib 50 nM) was 16.0% and the “Cell population (%) in S” value (ACHN VHL WT cells; dasatinib 50 nM) was 17.6%. For the same compound, the “Cell population (%) in G1” value (ACHN VHL WT cells; dasatinib 100 nM) was 64.5%, the “Cell population (%) in G2/M” value (ACHN VHL WT cells; dasatinib 100 nM) was 14.9% and the “Cell population (%) in S” value (ACHN VHL WT cells; dasatinib 100 nM) was 15.7%. The “Cell population (%) in G1” value (ACHN shVHL cells; dasatinib 25 nM) was 50.2%, the “Cell population (%) in G2/M” value (ACHN shVHL cells; dasatinib 25 nM) was 9.8% and the “Cell population (%) in S” value (ACHN shVHL cells; dasatinib 25 nM) was 37.4%. The “Cell population (%) in G1” value (ACHN shVHL cells; dasatinib 50 nM) was 47.6%, the “Cell population (%) in G2/M” value (ACHN shVHL cells; dasatinib 50 nM) was 14.2% and the “Cell population (%) in S” value (ACHN shVHL cells; dasatinib 50 nM) was 36.7%. For the same compound, the “Cell population (%) in G1” value (ACHN shVHL cells; dasatinib 100 nM) was 46.1%, the “Cell population (%) in G2/M” value (ACHN shVHL cells; dasatinib 100 nM) was 10.9% and the “Cell population (%) in S” value (ACHN shVHL cells; dasatinib 100 nM) was 40.8%. The “Cell population (%) in G1” value (SN12C VHL WT cells; dasatinib 25 nM) was 59.5%, the “Cell population (%) in G2/M” value (SN12C VHL WT cells; dasatinib 25 nM) was 15.0% and the “Cell population (%) in S” value (SN12C VHL WT cells; dasatinib 25 nM) was 23.9%. The “Cell population (%) in G1” value (SN12C VHL WT cells; dasatinib 50 nM) was 63.6%, the “Cell population (%) in G2/M” value (SN12C VHL WT cells; dasatinib 50 nM) was 11.7% and the “Cell population (%) in S” value (SN12C VHL WT cells; dasatinib 50 nM) was 22.8%. The “Cell population (%) in G1” value (SN12C VHL WT cells; dasatinib 100 nM) was 70.0%, the “Cell population (%) in G2/M” value (SN12C VHL WT cells; dasatinib 100 nM) was 11.7% and the “Cell population (%) in S” value (SN12C VHL WT cells; dasatinib 100 nM) was 16.3%. The “Cell population (%) in G1” value (SN12C shVHL cells; dasatinib 25 nM) was 45.2%, the “Cell population (%) in G2/M” value (SN12C shVHL cells; dasatinib 25 nM) was 17.5% and the “Cell population (%) in S” value (SN12C shVHL cells; dasatinib 25 nM) was 36.9%. For the same compound, the “Cell population (%) in G1” value (SN12C shVHL cells; dasatinib 50 nM) was 45.4%, the “Cell population (%) in G2/M” value (SN12C shVHL cells; dasatinib 50 nM) was 15.7% and the “Cell population (%) in S” value (SN12C shVHL cells; dasatinib 50 nM) was 38.5%. For the same compound, the “Cell population (%) in G1” value (SN12C shVHL cells; dasatinib 100 nM) was 46.1%, the “Cell population (%) in G2/M” value (SN12C shVHL cells; dasatinib 100 nM) was 18.5% and the “Cell population (%) in S” value (SN12C shVHL cells; dasatinib 100 nM) was 35.3%. The “Cell population (%) in G1” value ([2]; dasatinib 25 nM) was 54.8%, the “Cell population (%) in G2/M” value ([2]; dasatinib 25 nM) was 20.6% and the “Cell population (%) in S” value ([2]; dasatinib 25 nM) was 23.6%. The “Cell population (%) in G1” value ([2]; dasatinib 50 nM) was 55.7%, the “Cell population (%) in G2/M” value ([2]; dasatinib 50 nM) was 22.1% and the “Cell population (%) in S” value ([2]; dasatinib 50 nM) was 21.4%. For the same compound, the “Cell population (%) in G1” value ([2]; dasatinib 100 nM) was 49.7%, the “Cell population (%) in G2/M” value ([2]; dasatinib 100 nM) was 21.3% and the “Cell population (%) in S” value ([2]; dasatinib 100 nM) was 27.8%. The “Cell population (%) in G1” value (SN12C VHL WT; dasatinib 25 nM) was 60.1%, the “Cell population (%) in G2/M” value (SN12C VHL WT; dasatinib 25 nM) was 13.3% and the “Cell population (%) in S” value (SN12C VHL WT; dasatinib 25 nM) was 25.1%. For the same compound, the “Cell population (%) in G1” value (SN12C VHL WT; dasatinib 50 nM) was 59.2%, the “Cell population (%) in G2/M” value (SN12C VHL WT; dasatinib 50 nM) was 11.4% and the “Cell population (%) in S” value (SN12C VHL WT; dasatinib 50 nM) was 27.6%. The “Cell population (%) in G1” value (SN12C VHL WT; dasatinib 100 nM) was 60.4%, the “Cell population (%) in G2/M” value (SN12C VHL WT; dasatinib 100 nM) was 11.1% and the “Cell population (%) in S” value (SN12C VHL WT; dasatinib 100 nM) was 26.5%.

In the case of `Cc1ccc(NC(=O)c2ccc(CN3CCN(C)CC3)cc2)cc1Nc1nccc(-c2cccnc2)n1` [imatinib], the effect on proliferation (SN12C-shVHL cells) is reported as “had no effect on the proliferation” and the effect on proliferation (VHL-WT SN12C cells) is reported as “had no effect on the proliferation”.

Source: patent US9279811B2, “Methods and kits that identify tumors responsive to Src inhibitors” (OREGON HEALTH & SCIENCE UNIVERSITY, priority 2011, dated 2016)
